# In EP0840781B1, “METHODS AND DEVICES FOR THE REMOVAL OF PSORALENS FROM BLOOD PRODUCTS” (Cerus Corporation, priority 1995, dated 1996):
# Read-outs that look alike come from different tables or passages of the source.
# Assays:
# [1] = system: Duck Hepatitis B Virus (DHBV); experiment: Inactivation of Duck Hepatitis B Virus in platelet concentrate, read out by PCR amplification; assay type: biochemical; conditions: 5 J/cm^2 UVA
# Protocol: This example describes the protocol for inactivation of Duck Hepatitis B Virus (DHBV), a model for Hepatitis B Virus, using compounds described herein.
# DHBV in duck yolk was added to platelet concentrate (PC) to a final concentration of 2 x 10^7 particles per mL and mixed by gentle rocking for ≥15 min. Psoralens S-70, S-59 and AMT were added to 3 mL aliquots of PC in a Teflon™ mini-bag at concentrations of […]. Samples, including controls without added psoralen, were irradiated with 5 J/cm^2 UVA, with mixing at 1 J/cm^2 increments. After irradiation, leukocytes and platelets were separated from virus by centrifugation. The supernatant containing DHBV was digested overnight with 50 µg/mL proteinase K in a buffer containing 0.5% sodium dodecyl sulphate, 20 mM Tris buffer, pH 8.0, and 5 mM EDTA at 55°C. Samples were extracted with phenolchloroform and chloroform, followed by ethanol precipitation. Purified DNA was then used in PCR amplification reactions with a starting input of 10^6 DHBV genomes from each sample. PCR amplicons were generated using primers pairs DCD03/DCD05 (127 bp), DCD03/DCD06 (327 bp) and DCD03/DCD07 (1072 bp). PCR was performed in a standard PCR buffer containing 0.2 mM each deoxyribonucleoside 5'-triphosphates (dATP, dGTP, dCTP, and dTTP), […] each primer, and 0.5 units Taq polymerase per […]. 30 cycles of amplification were performed with the following thermal profile: 95°C 30 sec, 60° C 30 sec, 72° C 1 min. The amplification was followed by a 7 min incubation at 72° C to yield full length products. [[…]-^32P] dCTP was added at an amount of […] per […] in order to detect and quantify the resulting products. Products were separated by electrophoresis on denaturing polyacrylamide slab gels and counted. The absence of signal in a given reaction was taken to indicate effective inactivation of DHBV.
# [2] = system: Chinese hamster ovary (CHO) cells; experiment: In vitro genotoxicity screen in CHO cells (toxic dose); assay type: cell-based; conditions: approximately 3 hours exposure in the dark, dilutions 1-1000 µg/ml
# From the text: The positive control was methylmethane sulfonate.
# Coverslips were mounted with Permount.
# HIV-1 = conditions: 1 Minute Irradiation
# Protocol: Pathogen inactivation efficiency of several compounds described herein was evaluated by examining the ability of the compounds to inactivate cell-free virus (HIV). Inactivation of cell-free HIV was performed as follows.
# As in the R17 assay, small aliquots of the compounds listed in TABLES 10 and 11, below, at the concentrations listed in the table, were added to stock HIV-1 to a total of 0.5 mL. The stock HIV (10^5 - 10^7 plaque forming units/mL) was in DMEM/15% FBS. […] Controls included HIV-I stock only, HIV-1 plus UVA only, and HIV-I plus the highest concentration of each psoralen tested, with no UVA. Post irradiation. all samples were store frozen at -70° C until assayed for infectivity by a microtiter plaque assay. Aliquots for measurement of residual HIV infectivity in the samples treated with a compound of the present invention were withdrawn and cultured.
# Residual HIV infectivity was assayed using an MT-2 infectivity assay. […] The assay medium was 85% DMEM (with a high glucose concentration) containing 100 µg of streptomycin, 100 U of penicillin, 50 µg of gentamicin, and 1 µg of amphotericin B per mL, 15% FBS and 2 µg of Polybrene (Sigma Chemical Co., St. Louis, Mo.) per mL. Test and control samples from the inactivation procedure were diluted in 50% assay medium and 50% normal human pooled plasma. The samples were serially diluted directly in 96-well plates (Coming Glass Works, Coming, N.Y.). The plates were mixed on an oscillatory shaker for 30 seconds and incubated at 37°C in a 5% CO2 atmosphere for 1 to 18 hours. […] After an additional 1 hour of incubation at 37°C in 5% CO2, 0.075 mL of assay medium containing 1.6% SeaPlaque agarose (FMC Bioproducts, Rockland, Maine) and prewarmed to 38.5°C was added to each well. The plates were kept at 37°C for a few minutes until several plates had accumulated and then centrifuged in plate carriers at 600 x g for 20 minutes in a centrifuge precooled to 10°C. In the centrifuge, cell monolayers formed prior to gelling of the agarose layer. The plates were incubated for 5 days at 37°C in 5% CO2 and stained by the addition of 0.05 mL of 50 µg/mL propidium iodide (Sigma Chemical Co.) in phosphate-buffered saline (pH 7.4) to each well. After 24 to 48 hours, the red fluorescence-stained microplaques were visualized by placing the plates on an 8,000 µW/cm^2 304 nm UV light box (Fotodyne, Inc., New Berlin, Wis.). The plaques were counted at a magnification of x20 to x25 through a stereomicroscope.
# Male Balb/c mice = conditions: for bone marrow toxicity or micronucleus formation: experiment repeated using increased dose levels
# Protocol: Male Balb/c mice were then injected with 0.1 ml of a compound solution via the tail vein. At least 3 mice were injected per dose level Saline only was used as a negative control. For a positive control, cyclophosphamide (cycloPP) was administered at a dose of 30 mg/kg. In the experimental group, the injections were repeated once per day for four days. In the positive control group, the sample was administered only once, on day three. On day 5, several microliters of blood were withdrawn from each subject and smeared on a glass slide. Cells were fixed in absolute methanol and stored in a slide rack.
# For analysis, cells were stained with acridine orange and visualized under a fluorescence microscope by counting: (i) the number of reticulocytes per 5000 erythrocytes; and (ii) the number of micronucleated reticulocytes per 1000 reticulocytes. Reticulocytes were distinguished by their red fluorescence due to the presence of RNA. Micronuclei were distinguished by their green fluorescence due to the presence of DNA. The percentage of reticulocytes (%PCE) was then calculated. A decrease in the frequency of erythrocytes, represented by an increase in the percentage of reticulocytes, is an indication of bone marrow toxicity. The percentage of reticulocytes with micronuclei (%PCE with MN) was also calculated. An increase in %PCE with MN is a measure of elastogenicity.
# After initial results were determined, the experiment was repeated using increased dose levels, until: (i) Micronucleus formation was seen; or (ii). Bone marrow toxicity was observed; or (iii) The lethal dose was reached; or (iv) A dose of 5 g/kg was administered.
# [3] = system: H9 cells chronically infected with HIVIIIB; experiment: Inactivation of cell-associated HIV in platelet concentrate, HIV microplaque assay; assay type: cell-based; conditions: 150 µM in platelet concentrate; for logs of HIV inactivated (cell-associated): 3 Joules/cm^2, starting log titer 6.1 (Compound 2) or 6.6 (Compound 18); for log inactivation of HIV, dark control: no UVA
# Protocol: H9 cells chronically infected with HIVIIIB were used. (H9/HTLV-III-B NIH 1983 Cat.#400). Cultures of these cells were maintained in high glucose Dulbecco Modified Eagle Medium supplemented with 2 mM L-glutamine, 200 u/mL penicillin, 200 µg/ml streptomycin, and 9% fetal bovine serum (Intergen Company, Purchase, N.Y.) For maintenance, the culture was split once a week, to a density of 3 x 10^5 to 4 x 10^5 cells/ml and about four days after splitting, 3.3% sodium bicarbonate was added as needed. For the inactivation procedure, the cells were used three days after they were split. They were pelleted from their culture medium at 400 g x 10 minutes, the supernatant was discarded, and the cells were resuspended in one to five day old human platelet concentrate (PC) (pH 7.5-6.5), to a concentration of 2 x 10^6 cells/ml. Aliquots of the PC-infected cell suspension were made for psoralen free dark controls, for psoralen free UVA only controls, for psoralen dark controls, and for the psoralen plus UVA experimental sample. Concentrated filter-sterilized stock solutions of each psoralen in water were diluted into the appropriate aliquots to yield a final concentration of 150 µM. […] After an equilibration period of thirty minutes at room temperature, 0.5 ml of each of the dark controls was placed in a cryovial and stored in the dark at -80° C. For UVA illumination, 8 ml of the psoralen free aliquot and 8 ml of each psoralen containing aliquot were introduced into a modified F1 20 Teflon™ bag (modified to be 92 cm^2 total surface area. The West Co., Phoenixvill, PA) via a plastic disposable 10 ml syringe attached to one of the polypropylne ports on the bag. This gave an average path length of 0.17 cm. The bags were then illuminated for a total exposure of 3 Joules/cm^2 in the device described in Example 1, above, attached to a circulating refrigerating water bath set at 4° C. which maintains the temperature in the bag at approximately 22-25° C. During exposure, the device was shaken on a platelet shaker (Helmer Labs, Noblesville, IN). After exposure, the contents of the bags were withdrawn by a fresh syringe through the remaining unused port on the bag, and placed in cryovials for storage in the dark at […] until analysis.
# Clot removal from each sample was performed before plating.
# [4] = 16 µM, HIV Starting Titer Approximately 5 Logs (Table 10)
# [5] = 16 µM, HIV Starting Titer Approximately 5.4 Logs (Table 11)
# [6] = 32 µM, HIV Starting Titer Approximately 5.4 Logs (Table 11)
# [7] = 64 µM, HIV Starting Titer Approximately 5.4 Logs (Table 11)
# [8] = 32 µM, HIV Starting Titer Approximately 5 Logs (Table 10)
# [9] = 64 µM, HIV Starting Titer Approximately 5 Logs (Table 10)
# [10] = male, Balb/c, mouse, in vivo, 25 mg/kg, 5 day
# [11] = male, Balb/c, mouse, in vivo, 40 mg/kg, 5 day
SMILES,PCR amplification of the 1072 bp amplicon of DHBV [1],PCR amplification of the 1072 bp amplicon of DHBV ([1]; 70 and 100 mM in PC),genotoxic (toxic) dose [2],HIV Log Kill (HIV-1; [4]),bone marrow toxicity or micronucleus formation (Male Balb/c mice),logs of HIV inactivated (cell-associated) [3],"log inactivation of HIV, dark control [3]",HIV Log Kill (HIV-1; [5]),HIV Log Kill (HIV-1; [6]),HIV Log Kill (HIV-1; [7]),"PCE/RBC (%) (Male Balb/c mice; Dose 45 mg/kg, tail vein, once per day for four days, blood on day 5)",HIV Log Kill (HIV-1; [8]),HIV Log Kill (HIV-1; [9]),"PCR of the 1072 bp amplicon of DHBV ([1]; all concentrations (35, 70, and 100 mM) in PC)","inhibition of PCR of the smaller amplicons (127 bp, 327 bp) of DHBV ([1]; same concentrations as AMT)",PCE + MN (%) (Male Balb/c mice; [10]),PCE/RBC (%) (Male Balb/c mice; [10]),PCE + MN (%) (Male Balb/c mice; [11]),PCE/RBC (%) (Male Balb/c mice; [11])
"Cc1oc2c(C)c3oc(=O)cc(C)c3cc2c1CN [AMT, 4'-Aminomethyl-4,5',8-trimethylpsoralen, reference compound]",a signal could be detected,inhibited PCR amplification,30 µg/mL,1.4,–,–,–,–,–,–,–,–,–,–,–,–,–,–,–
"Cc1cc(=O)oc2c(C)c3oc(COCCN)c(C)c3cc12 [Compound 18, 5'-(4-amino-2-oxa)butyl-4,4',8-trimethylpsoralen]",–,–,–,–,the acutely lethal dose was reached before there were any signs of bone marrow toxicity or micronucleus formation,> 7.2 logs,0 logs,1.0,1.0,3.1,–,–,–,–,–,–,–,–,–
"Cc1oc2c(C)c3oc(=O)cc(C)c3cc2c1CNCCCCN [Compound 6, 4'-(6-amino-2-aza)hexyl4,5',8-trimethylpsoralen]",–,–,–,2.0,the acutely lethal dose was reached before there were any signs of bone marrow toxicity or micronucleus formation,–,–,2.1,3.2,>2.8,3.79 ± 10.41%,3.1,>3.8,–,–,–,–,–,–
"Cc1oc2c(C)c3oc(=O)cc(C)c3cc2c1COCCN [Compound 2, 4'-(4-amino-2-oxa)butyl-4,5',8-trimethylpsoralen]",–,–,–,1.4,the acutely lethal dose was reached before there were any signs of bone marrow toxicity or micronucleus formation,> 6.7 logs,0 logs,–,–,–,–,3.8,>4.5,complete inhibition of PCR,better than did AMT,0.25 ± 0.11%,3.46 ± 0.32%,0.20 ± 0.14%,3.08 ± 0.82%
